In article PMC6022226, “Novel coumarin-6-sulfonamides as apoptotic anti-proliferative agents: synthesis, in vitro biological evaluation, and QSAR studies” (Journal of Enzyme Inhibition and Medicinal Chemistry, 2018):
Like-named read-outs stand apart in the source and are kept apart here.

Legend:
Bax = test: ELISA immunoassay, Bax expression level in HepG2 cells; format: cell-based, human; details: HepG2 cells treated at IC50 concentration
Description: (§1) The levels of the apoptotic markers (Bax, caspase-3) and the anti-apoptotic marker (Bcl-2) were examined using ELISA colorimetric kits per the manufacturer’s protocol and referring to reported instructions[51] ^, [52].
(§2) The Bcl-2 proteins family is mainly responsible for synchronizing the mitochondrial apoptotic pathway, and classified into two major classes: anti-apoptotic proteins such as Bcl-2 protein and the counteracting pro-apoptotic proteins including Bax protein. In this study, we examined the impact of coumarins 13a and 15a on the level of the anti-apoptotic Bcl2 and the level of the pro-apoptotic Bax (Table 3).

MCF-7 breast cancer = test: In vitro anti-proliferative activity, SRB assay, MCF-7; format: cell-based, human; details: mean ± SE of three experiments
Description: (§3) HepG2 liver cancer, MCF-7 breast cancer and Caco-2 cancer cell lines were obtained from the National Cancer Institute (Cairo, Egypt). Caco-2 cells were grown in DMEM while HepG2 and MCF-7 were grown in RPMI-1640. Media were supplemented with 10% heat-inactivated FBS, 50 units/mL of penicillin and 50 µg/mL of streptomycin and maintained at 37 °C in a humidified atmosphere containing 5% CO2. The cells were maintained as a “monolayer culture” by serial subculturing. Cytotoxicity was determined using the sulforhodamine B (SRB) method as previously described by Skehan et al.[50] Exponentially growing cells were collected using 0.25% trypsin-EDTA and seeded in 96-well plates at 1000–2000 cells/well in supplemented DMEM medium. After 24 h, cells were incubated for 72 h with various concentrations of the tested compounds as well as doxorubicin as the reference compound. Following 72 h of treatment, the cells were fixed with 10% trichloroacetic acid for 1 h at 4 °C. Wells were stained for 10 min at room temperature with 0.4% SRB dissolved in 1% acetic acid. The plates were air dried for 24 h, and the dye was solubilized with Tris–HCl for 5 min on a shaker at 1600 rpm. The optical density (OD) of each well was measured spectrophotometrically at 564 nm with an ELISA microplate reader (ChroMate-4300, FL, USA). The IC50 values were calculated according to the equation for Boltzmann sigmoidal concentrationeresponse curve using the nonlinear regression models (GraphPad, Prism Version 5). The results reported are means of at least three separate experiments. Significant differences were analyzed by one-way ANOVA wherein the differences were considered to be significant at p < .05.
(§4) All the newly synthesized target coumarin sulfonamides were evaluated for their in vitro anti-proliferative activity against three human tumor cancer cell lines, HepG2 hepatocellular carcinoma, MCF-7 breast cancer, and Caco-2 colon cancer, using SRB colorimetric assay as described by Skehan et al.^50 Doxorubicin was involved in the experiments as a reference cytotoxic compound.

caspase-3 = test: ELISA immunoassay, active caspase-3 level in HepG2 cells; format: cell-based, human; details: HepG2 cells treated at IC50 concentration
Description: as §1
As a key executioner protease, caspase-3 is activated by upstream initiator caspases as caspase-9.

[1] = test system: non-tumorigenic human normal lung fibroblast cell line (WI-38); test: In vitro cytotoxicity towards normal WI-38 cells; format: cell-based; details: for Selectivity index: WI-38 versus HepG2; for IC50: normal lung fibroblasts
Bcl-2 = test: ELISA immunoassay, Bcl-2 expression level in HepG2 cells; format: cell-based, human; details: HepG2 cells treated at IC50 concentration
Description: as §1, §2

[2] = test system: HepG2 hepatocellular carcinoma; test: In vitro anti-proliferative activity, SRB assay, HepG2; format: cell-based, human; details: for fold increased potency than doxorubicin: HepG2 IC50 ratio
Description: as §3, §4

Caco-2 colon cancer = test: In vitro anti-proliferative activity, SRB assay, Caco-2; format: cell-based, human
Description: as §3, §4

HepG2 cells [3] = test: Cell cycle analysis by DNA flow cytometry (PI); format: cell-based, human; details: HepG2, 24 h, at IC50 concentration
Description: Subsequently, the treated cells were collected by centrifugation, fixed in ice-cold 70% (v/v) ethanol, washed with PBS, re-suspended with 0.1 mg/mL RNase, stained with […] PI, and analyzed by flow cytometry using FACS Calibur (Becton Dickinson, BD). The cell cycle distributions were calculated using CellQuest software (Becton Dickinson)[53].
The impact of compound 13a on cell cycle progression was examined in HepG2 cancer cell line after 24 h of treatment (Figure 2). This impact was illustrated by DNA flow cytometric analysis where HepG2 cells were treated with 13a at concentration equals to its IC50. […] Alteration of the Pre-G1 phase and arrest of G2-M phase were significant remarks for compound 13a to induce apoptosis in HepG2 cells.

HepG2 cells [4] = test: Annexin V-FITC/PI apoptosis assay; format: cell-based, human; details: HepG2, 24 h
Description: Phosphatidylserine externalization was measured using Annexin V-FITC/PI apoptosis detection kit (BD Biosciences, San Jose, CA) according to the manufacturer's instructions, as reported earlier. HepG2 cells were treated with 13a at defined concentrations for 24 h.
The apoptotic effect of coumarin 13a was further assured by Annexin V-FITC/PI (AV/PI) dual staining assay to investigate the occurrence of phosphatidylserine externalization (Figure 3).

## 2-Oxo-N-(4–(1-(2–(5-oxo-4,5-dihydrothiazol-2-yl)hydrazono)ethyl)phenyl)-2H-chromene-6-sulfonamide [Compound 15a]
Bax
  Bax expression level: 394.3 Pg/mg protein
  Bax, folds of control: 14.3 folds
MCF-7 breast cancer; 72 h incubation, read-out: IC50 MCF7
  IC50: 11 ± 0.96 µM
caspase-3
  Caspase-3 (active caspase-3 level): 0.2625 ng/mg protein
  Caspase-3, folds of control: ~5.7 folds
[1]
  Selectivity index: 11
  IC50: 55.92 ± 0.39 µM
Bcl-2
  Bcl-2, folds of control: 0.39 folds
  Bcl-2 expression level: 2.73 ng/mg protein
  Bcl-2 level, % of control: 38.6%
[2]; 72 h incubation, SRB, mean ± SE of three experiments, read-out: IC50 HepG2
  IC50: 5.03 ± 0.39 µM
[2]
  fold increased potency than doxorubicin: 1.1 fold
[2]; external validation test compounds, Table 5, -log IC50 (IC50 in µM)
  HepG2 Experimental activity (pIC50): –0.7016
Caco-2 colon cancer; 72 h incubation, SRB, mean ± SE of three experiments, read-out: IC50 Caco-2
  IC50: 158 ± 9.39 µM
Caco-2 colon cancer; training set, Table 4, -log IC50 (IC50 in µM)
  Caco-2 Experimental activity (pIC50): −2.1997

## CC(=NNc1nc(-c2ccccc2)cs1)c1ccc(NS(=O)(=O)c2ccc3oc(=O)ccc3c2)cc1 [Compound 13a, 2-Oxo-N-(4–(1-(2–(4-phenylthiazol-2-yl)hydrazono)ethyl)phenyl)-2H-chromene-6-sulfonamide]
HepG2 cells [3]
  arrest in G2-M phase compared to control: 5.4 folds
  increase in percentage of cells at Pre-G1 compared to control: 6.4 folds
Bax
  Bax expression level: 453.3 Pg/mg protein
  Bax, folds of control: 16.5 folds
MCF-7 breast cancer; Homo sapiens, MCF7, 72 h incubation
  IC50: 83.2 ± 6.85 µM
HepG2 cells [4]
  annexin V-FITC positive apoptotic cells, folds compared to control: about 7.9 folds
HepG2 cells [4]; control 1.75%
  annexin V-FITC positive apoptotic cells (UR + LR): 13.76%
caspase-3
  Caspase-3 (active caspase-3 level): 0.3021 ng/mg protein
[1]; Homo sapiens, WI-38
  IC50: 73.2 ± 3.47 µM
[1]
  Selectivity index: 21
Bcl-2
  Bcl-2, folds of control: 0.21 folds
  Bcl-2 expression level: 1.51 ng/mg protein
  Bcl-2 level, % of control: 21.4%
[2]
  fold increased potency than doxorubicin: 1.5 fold
[2]; Homo sapiens, HepG2, 72 h, 72 h incubation, SRB, mean ± SE of three experiments, read-out: IC50 HepG2
  IC50: 3.48 ± 0.28 µM
[2]; Homo sapiens, HepG2, training set, Table 4, -log IC50 (IC50 in µM), read-out: HepG2 Experimental activity (pIC50) (converted)
  IC50: 3.48 µM
Caco-2 colon cancer; Homo sapiens, Caco-2, 72 h incubation, SRB, mean ± SE of three experiments, read-out: IC50 Caco-2
  IC50: 83.4 ± 7.04 µM
Caco-2 colon cancer; Homo sapiens, Caco-2, training set, Table 4, -log IC50 (IC50 in µM), read-out: Caco-2 Experimental activity (pIC50) (converted)
  IC50: 83.4 µM
